Test results as given in patent US9242984B2, “Pyrazolyl derivatives as Syk inhibitors” (Merck Sharp & Dohme Corp., priority 2012, dated 2016).
Read-outs that look alike come from different tables or passages of the source.

Molecular target: T1, recombinant human Syk (GST-hSyk fusion protein) (Homo sapiens, UniProt P43405)
T1 construct: purchased Carna Biosciences 08-176
Assay: Homogeneous Time-Resolved Fluorescence (HTRF) assay for the recombinant human Syk enzyme
Type: biochemical
Details: 10-dose titration, 25 μM ATP
Summary of the method: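 GST-hSyk (5 pM) preincubated 10 min with compound (0.1% DMSO) in 15 mM Tris-HCl pH 7.5, 2 mM DTT; reaction started with 250 nM biotinylated peptide, 5 mM Mg, 25 μM ATP, 45 min, room temperature. EDTA quench, Eu-anti-phosphotyrosine/SA-APC HTRF read after 30 min; IC50 from 10-dose titration (10 μM–0.508 nM), four-parameter fit.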

[1] = IC50 class, read-out: rhSYK Activity

| Compound | IC50 [1] | IC50 (read-out: rhSYK IC50) |
| --- | --- | --- |
| CNC(=O)[C@@H](O)Cn1cc(-c2cc(C)cc(Nc3nccc(C(F)(F)F)n3)c2)cn1 [Example 6.11, (2S)-2-hydroxy-N-methyl-3-[4-(3-methyl-5-{[4-(trifluorometh-yl)pyrimidin-2-yl]amino}phenyl)-1H-pyrazol-1-yl]propanamide] | ≤ 100 nM |  |
| Cc1cc(Nc2nccc(C(C)F)n2)cc(-c2cnn(C[C@H](O)C(N)=O)c2)c1 (stereo partly drawn) [Example 6.8, (2S)-3-[4-(3-{[4-(1-fluoroethyl)-pyrimidin-2-yl]amino}-5-methylphenyl)-1H-pyrazol-1-yl]-2-hydroxy-propanamide] | ≤ 100 nM |  |
| CCC(C)(O)Cn1cc(-c2cc(C)cc(Nc3nccc(C(F)F)n3)c2)cn1 (stereo not drawn) [Example 3.114, 1-[4-(3-{[4-(difluoromethyl)pyrimidin-2-yl]amino}-5-methylphenyl)-1H-pyrazol-1-yl]-2-methylbutan-2-ol] | ≤ 100 nM |  |
| Cc1cc(Nc2nccc(C(F)(F)F)n2)cc(-c2cnn(CC(O)C(N)=O)c2)c1 (single isomer, unassigned) [Example 7.1, (R or S)-2-hydroxy-3-[4-(3-methyl-5-{[4-(trifluoromethyl)pyrimidin-2-yl]amino}phenyl)-1H-pyrazol-1-yl]propanamide] | ≤ 100 nM | 1.1 nM |
| Cc1cc(Nc2nccc(C3CC3)n2)cc(-c2cnn(CC3CNC(=O)O3)c2)c1 (stereo not drawn) [Example 2.19, 5-[(4-{3-[(4-cyclopropylpyrimidin-2-yl)amino]-5-methylphenyl}-1H-pyrazol-1-yl)methyl]-1,3-oxazolidin-2-one] | ≤ 100 nM |  |
| Cc1cc(Nc2nccc(C(F)(F)F)n2)cc(-c2cnn(C3CCC(C(=O)OC(C)(C)C)CC3)c2)c1 (stereo not drawn) [Example 1.4, tert-butyl 4-[4-(3-methyl-5-{[4-(trifluoromethyl)-pyrimidin-2-yl]amino}-phenyl)-1H-pyrazol-1-yl]-cyclohexanecarboxylate] | 1000 to 10000 nM |  |
| Cc1cc(Nc2nccc(C(F)(F)F)n2)cc(-c2cnn(C3CCC(C(N)=O)C(C)(C)C3)c2)c1 (stereo not drawn) [Example 8.7, 2,2-dimethyl-4-[4-(3-methyl-5-{[4-(trifluoromethyl)-pyrimidin-2-yl]amino}-phenyl)-1H-pyrazol-1-yl]cyclohexane-carboxamide] | ≤ 100 nM |  |
| Cc1cc(Nc2nccc(C(F)F)n2)cc(-c2cnn(CC(O)C3CCCNC3)c2)c1 (stereo not drawn) [Example 5.34, 2-[4-(3-{[4-(difluoromethyl)pyrimidin-2-yl]amino}-5-methylphenyl)-1H-pyrazol-1-yl]-1-piperidin-3-ylethanol] | ≤ 100 nM |  |
| Cc1cc(Nc2nccc(C)n2)cc(-c2cnn(CC3OC(=O)NC3C)c2)c1 (single isomer, unassigned) [Example 23.8, 4-methyl-5-[(4-{3-methyl-5-[(4-methylpyrimidin-2-yl)amino]phenyl}-1H-pyrazol-1-yl)methyl]-1,3-oxazolidin-2-one] | ≤ 100 nM |  |
| COCC(=O)NC(C)(C)Cn1cc(-c2cc(C)cc(Nc3nccc(C(F)F)n3)c2)cn1 [Example 26.3, N-{2-[4-(3-{[4-(difluoromethyl)pyrimidin-2-yl]amino}-5-methylphenyl)-1H-pyrazol-1-yl]-1,1-dimethylethyl}-2-methoxyacetamide] | ≤ 100 nM |  |
| CCOC(=O)CCn1cc(-c2cc(C)cc(Nc3cc(C(F)(F)F)ccn3)n2)cn1 [Example 1.16, ethyl 3-[4-(4-methyl-6-{[4-(trifluoromethyl)pyridin-2-yl]amino}pyridin-2-yl)-1H-pyrazol-1-yl]propanoate] | ≤ 100 nM |  |
| Cc1cc(Nc2nccc(C(F)F)n2)cc(-c2cnn(CC(O)C(C)C)c2)c1 (stereo not drawn) [Example 5.23, 1-[4-(3-{[4-(difluoromethyl)pyrimidin-2-yl]amino}-5-methylphenyl)-1H-pyrazol-1-yl]-3-methylbutan-2-ol] | ≤ 100 nM |  |
| Cc1cc(Nc2nccc(C)n2)cc(-c2cnn(CC3(C)CNC(=O)O3)c2)c1 (stereo not drawn) [Example 3.121, 5-methyl-5-[(4-{3-methyl-5-[(4-methylpyrimidin-2-yl)amino]phenyl}-1H-pyrazol-1-yl)methyl]-1,3-oxazolidin-2-one] | ≤ 100 nM |  |
| COc1nc(Nc2cc(C)cc(-c3cnn(C[C@](C)(O)CO)c3)c2)ncc1Cl [Example 2.98, (2S)-3-(4-{3-[(5-chloro-4-methoxypyrimidin-2-yl)amino]-5-methylphenyl}-1H-pyrazol-1-yl)-2-methylpropane-1,2-diol] | ≤ 100 nM |  |
| Cc1cc(Nc2nccc(C(F)F)n2)cc(-c2cnn(CCNC(=O)NCC3CCOCC3)c2)c1 [Example 27.17, 1-{2-[4-(3-{[4-(difluoromethyl)pyrimidin-2-yl]amino}-5-methylphenyl)-1H-pyrazol-1-yl]ethyl}-3-(tetrahydro-2H-pyran-4-ylmethyl)urea] | ≤ 100 nM |  |
| Cc1cc(Nc2nccc(C3CC3)n2)cc(-c2cnn(C[C@H](O)C(N)=O)c2)c1 [Example 6.5, (2S)-3-(4-{3-[(4-cyclopropyl-pyrimidin-2-yl)amino]-5-methylphenyl}-1H-pyrazol-1-yl)-2-hydroxypropan-amide] | ≤ 100 nM |  |
| Cc1cc(Nc2nccc(C(F)(F)F)n2)cc(-c2cnn(C[C@@H](O)C(N)=O)c2)c1 [Example 8.2, (2R)-2-hydroxy-3-[4-(3-methyl-5-{[4-(trifluorometh-yl)pyrimidin-2-yl]amino}phenyl)-1H-pyrazol-1-yl]propanamide] | ≤ 100 nM |  |

| Compound | IC50 [1] | IC50 (read-out: rhSYK IC50) |
| --- | --- | --- |
| N-[2-methyl-6-(1-methyl-1H-pyrazol-4-yl)pyridin-4-yl]-4-(trifluoromethyl)-pyrimidin-2-amine [Example 1.43] | 100 to 1000 nM |  |
| Cc1ccnc(Nc2cc(C)cc(-c3cnn(CC4(O)CCC4)c3)n2)c1 [Example 29.3, 1-[(4-{4-methyl-6-[(4-methylpyridin-2-yl)amino]pyridin-2-yl}-1H-pyrazol-1-yl)methyl}cyclobutanol] | ≤ 100 nM |  |
| 4-{[4-(4-methyl-6-{[4-(trifluoromethyl)pyridin-2-yl]amino}pyridin-2-yl)-1H-pyrazol-1-yl]-methyl}pyrrolidin-2-one [Example 1.38] | ≤ 100 nM |  |
| Cc1cc(Nc2nccc(C(F)F)n2)cc(-c2cnn(C(C)C(C)(O)CO)c2)c1 (stereo not drawn) [Example 22.3, 3-[4-(3-{[4-(difluoromethyl)pyrimidin-2-yl]amino}-5-methylphenyl)-1H-pyrazol-1-yl]-2-methylbutane-1,2-diol] | ≤ 100 nM |  |
| CCC(O)(CC)Cn1cc(-c2cc(C)cc(Nc3nccc(C(F)F)n3)c2)cn1 [Example 5.32, 3-{[4-(3-{[4-(difluoromethyl)pyrimidin-2-yl]amino}-5-methylphenyl)-1H-pyrazol-1-yl]methyl}pentan-3-ol] | ≤ 100 nM |  |
| CCNC(=O)NCCn1cc(-c2cc(C)cc(Nc3nccc(C(F)F)n3)c2)cn1 [Example 27.16, 1-{2-[4-(3-{[4-(difluoromethyl)pyrimidin-2-yl]amino}-5-methylphenyl)-1H-pyrazol-1-yl]ethyl}-3-ethylurea] | ≤ 100 nM |  |
| Cc1cc(Nc2nccc(C(F)F)n2)cc(-c2cnn(C(C)C3CNC(=O)O3)c2)c1 (stereo not drawn) [Example 3.91, 5-{1-[4-(3-{[4-(difluoromethyl)pyrimidin-2-yl]amino}-5-methylphenyl)-1H-pyrazol-1-yl]ethyl}-1,3-oxazolidin-2-one] | ≤ 100 nM |  |
| Cc1cc(Nc2cc(C(F)(F)F)ccn2)nc(-c2cnn(CCC(=O)O)c2)c1 [Example 1.21, 3-[4-(4-methyl-6-{[4-(trifluoromethyl)pyridin-2-yl]amino]pyridin-2-yl)-1H-pyrazol-1-yl)propanoic acid] | ≤ 100 nM |  |
| Cc1cc(Nc2nccc(OCCO)n2)cc(-c2cnn(C[C@H](O)C(N)=O)c2)c1 [Example 6.2, (2S)-2-hydroxy-3-[4-(3-{[4-(2-hydroxyethoxy)pyrimidin-2-yl]amino}-5-methylphenyl)-1H-pyrazol-1-yl]propanamide] | ≤ 100 nM |  |
| Cc1cc(Nc2nccc(C(F)F)n2)cc(-c2cnn(CCNS(C)(=O)=O)c2)c1 [Example 27.1, N-(2-(4-(3-((4-(Difluoromethyl)pyrimidin-2-yl)amino)-5-methylphenyl)-1H-pyrazol-1-yl)ethyl)methanesulfonamide] | ≤ 100 nM | 8.6 nM |
| Cc1cc(Nc2nccc(C(F)F)n2)cc(-c2cnn(CC3OC(=O)NC3C3CC3)c2)c1 (single isomer, unassigned) [Example 23.18, 4-cyclopropyl-5-{[4-(3-{[4-(difluoromethyl)pyrimidin-2-yl]amino}-5-methylphenyl)-1H-pyrazol-1-yl]methyl}-1,3-oxazolidin-2-one] | ≤ 100 nM |  |
| Cc1cc(Nc2nccc(C(F)F)n2)cc(-c2cnn(CC3OC(=O)NC3(C)C)c2)c1 (stereo not drawn) [Example 3.103, 5-{[4-(3-{[4-(difluoromethyl)pyrimidin-2-yl]amino}-5-methylphenyl)-1H-pyrazol-1-yl]methyl}-4,4-dimethyl-1,3-oxazolidin-2-one] | ≤ 100 nM |  |
| Cc1cc(Nc2cc(C3CC3)ccn2)nc(-c2cnn(CCC(=O)O)c2)c1 [Example 1.22, 3-(4-{6-[(4-cyclopropylpyridin-2-yl)amino]-4-methylpyridin-2-yl}-1H-pyrazol-1-yl)propanoic acid] | ≤ 100 nM |  |
| Cc1cc(Nc2nccc(C(F)(F)F)n2)cc(-c2cnn(CC(=O)N3CCC3)c2)c1 [Example 3.26, N-{3-[1-(2-azetidin-1-yl-2-oxoethyl)-1H-pyrazol-4-yl]-5-methylphenyl}-4-(trifluoromethyl)pyrimidin-2-amine] | ≤ 100 nM |  |
| Cc1cc(Nc2nccc(C(F)F)n2)cc(-c2cnn(C3CCC(O)C3(C)O)c2)c1 (stereo not drawn) [Example 22.13, 5-[4-(3-{[4-(difluoromethyl)pyrimidin-2-yl]amino}-5-methylphenyl)-1H-pyrazol-1-yl]-1-methylcyclopentane-1,2-diol] | ≤ 100 nM | 3.6 nM |
| Cc1cc(Nc2nccc(C(F)F)n2)cc(-c2cnn(CC(C)(O)CO)c2)c1 (single isomer, unassigned) [Example 25.3, 3-[4-(3-{[4-(difluoromethyl)pyrimidin-2-yl]amino}-5-methylphenyl)-1H-pyrazol-1-yl]-2-methylpropane-1,2-diol] | ≤ 100 nM |  |
